From article PMC10092094 (Chemmedchem, 2022)

Legend:
OGG1 [1] = target: T1, OGG1 (Homo sapiens, UniProt O15527); test: biochemical
OGG1 [2] = target: T1, OGG1; test: Differential scanning fluorimetry; assay type: binding
[3] = IC50 (CI95), biochemical inhibition, confidence interval 95 in parentheses

T1 sequence (O15527 whole entry): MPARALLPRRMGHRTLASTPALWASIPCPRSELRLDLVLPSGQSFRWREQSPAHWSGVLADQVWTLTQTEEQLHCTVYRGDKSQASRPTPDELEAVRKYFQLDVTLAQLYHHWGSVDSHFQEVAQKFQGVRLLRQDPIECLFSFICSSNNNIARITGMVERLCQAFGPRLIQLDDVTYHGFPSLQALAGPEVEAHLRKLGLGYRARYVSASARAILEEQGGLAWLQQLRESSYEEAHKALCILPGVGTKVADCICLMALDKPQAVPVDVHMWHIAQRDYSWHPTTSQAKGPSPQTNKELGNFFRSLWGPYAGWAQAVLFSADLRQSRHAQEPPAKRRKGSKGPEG

Compound	IC50 (OGG1 [1]; [3]) [nM]	DSF stabilization (ΔT) (OGG1 [2]) [K]	IC50 (OGG1 [1]; IC50, biochemical inhibition, single replicate) [nM]
O=C(Nc1ccc(Br)cc1)N1CCC(n2c(=O)[nH]c3c(Br)cccc32)CC1 [Compound 44, 4‐(4‐bromo‐2‐oxo‐2,3‐dihydro‐1H‐1,3‐benzodiazol‐1‐yl)‐N‐(4‐bromophenyl)piperidine‐1‐carboxamide]	190	4.2	
Cc1ccc(NC(=O)N2CCC(n3c(=O)[nH]c4c(Br)cccc43)CC2)cc1 [Compound 45, 4‐(4‐bromo‐2‐oxo‐2,3‐dihydro‐1H‐1,3‐benzodiazol‐1‐yl)‐N‐(4‐methylphenyl)piperidine‐1‐carboxamide]	2100	5.1	
CC(C)(C)c1ccc(NC(=O)N2CCC(n3c(=O)[nH]c4c(Br)cccc43)CC2)cc1 [Compound 46, 4‐(4‐bromo‐2‐oxo‐2,3‐dihydro‐1H‐1,3‐benzodiazol‐1‐yl)‐N‐(4‐tert‐butylphenyl)piperidine‐1‐carboxamide]	46000	0.0	
COc1ccc(NC(=O)N2CCC(n3c(=O)[nH]c4c(Br)cccc43)CC2)cc1 [Compound 47, 4‐(4‐bromo‐2‐oxo‐2,3‐dihydro‐1H‐1,3‐benzodiazol‐1‐yl)‐N‐(4‐methoxyphenyl)piperidine‐1‐carboxamide]		4.1	3100
O=C(Nc1ccc(C(F)(F)F)cc1)N1CCC(n2c(=O)[nH]c3c(Br)cccc32)CC1 [Compound 49, 4‐(4‐bromo‐2‐oxo‐2,3‐dihydro‐1H‐1,3‐benzodiazol‐1‐yl)‐N‐[4‐(trifluoromethyl)phenyl]piperidine‐1‐carboxamide]	1600	1.6	
O=C(Nc1ccc(Cl)c(Cl)c1)N1CCC(n2c(=O)[nH]c3c(Br)cccc32)CC1 [Compound 53, 4‐(4‐bromo‐2‐oxo‐2,3‐dihydro‐1H‐1,3‐benzodiazol‐1‐yl)‐N‐(3,4‐dichlorophenyl)piperidine‐1‐carboxamide]	440	3.1	
COc1cc(NC(=O)N2CCC(n3c(=O)[nH]c4c(Br)cccc43)CC2)ccc1Cl [Compound 54, 4‐(4‐bromo‐2‐oxo‐2,3‐dihydro‐1H‐1,3‐benzodiazol‐1‐yl)‐N‐(4‐chloro‐3‐methoxyphenyl)piperidine‐1‐carboxamide]	300	1.9	
COc1cc(NC(=O)N2CCC(n3c(=O)[nH]c4c(Br)cccc43)CC2)ccc1C [Compound 55, 4‐(4‐bromo‐2‐oxo‐2,3‐dihydro‐1H‐1,3‐benzodiazol‐1‐yl)‐N‐(3‐methoxy‐4‐methylphenyl)piperidine‐1‐carboxamide]	200	1.8	
COc1ccc(NC(=O)N2CCC(n3c(=O)[nH]c4c(Br)cccc43)CC2)cc1OC [Compound 56, 4‐(4‐bromo‐2‐oxo‐2,3‐dihydro‐1H‐1,3‐benzodiazol‐1‐yl)‐N‐(3,4‐dimethoxyphenyl)piperidine‐1‐carboxamide]	4400	5.1	
